# Values of other authors as cited in patent publication US20210338702A1, “A teniposide injection with high dilution stability and preparation method thereof” (JIANGSU LINGHANG BIOLOGICAL TECHNOLOGY CO., LTD., priority 2018, published 2021).
# What was measured:
# [1] = compared with the same type of drug etoposide
compound,measurement,setting,value
COc1cc([C@@H]2c3cc4c(cc3[C@@H](O[C@@H]3O[C@@H]5CO[C@@H](c6cccs6)O[C@H]5[C@H](O)[C@H]3O)[C@H]3COC(=O)[C@H]23)OCO4)cc(OC)c1O [Teniposide],Solubility in water,,almost insoluble in water
same,Biological activity relative to etoposide,[1],5-10 times
